From US10105357B2, “Indication of antibiotic drugs for preparation of cancer inhibition pharmaceutical composition” (LAUNX BIOMEDICAL CO., LTD., priority 2014, dated 2018)
Like-named read-outs stand apart in the source and are kept apart here.

Columns and labels:
Format in all cases: cell-based, human
[1] = tested on: cancer cell lines; experiment: Cell viability analysis (WST-1) on cancer cell lines; settings: drug 10 μM, 72 hours, WST-1; Table 3
[2] = tested on: HI650 (Lung Adenocarcinoma); experiment: Cell viability analysis, lung cancer HI650; settings: Homo sapiens, NCI-H1650, 72 h
[3] = tested on: A549 (Lung Adenocarcinoma); experiment: Cell viability analysis, lung cancer A549; settings: Homo sapiens, A549, 72 h
[4] = tested on: AGS (Gastric Adenocarcinoma); experiment: Cell viability analysis, gastric cancer AGS; settings: Homo sapiens, 72 h
[5] = tested on: MKN-45 (Gastric Adenocarcinoma); experiment: Cell viability analysis, gastric cancer MKN-45; settings: Homo sapiens, MKN-45, 72 h
[6] = tested on: HepG2 (Hepatocellular Carcinoma); experiment: Cell viability analysis, hepatic cancer HepG2; settings: Homo sapiens, HepG2, 72 h
[7] = tested on: Hep3B (hepatocellular carcinoma); experiment: Cell viability analysis, hepatic cancer Hep3B; settings: Homo sapiens, Hep3B, 72 h, read-out: The results of antibiotic drug inhibiting cancer cell lines (cell viability analysis), Hep3B
[8] = tested on: LoVo (Colorectal Adenocarcinoma); experiment: Cell viability analysis, colon cancer LoVo; settings: Homo sapiens, LoVo, 72 h
[9] = tested on: A375 (Amelanotic Melanoma); experiment: Cell viability analysis, skin cancer A375; settings: Homo sapiens, A-375, 72 h
[10] = tested on: BCC (basal cell carcinoma); experiment: Cell viability analysis, skin cancer BCC; settings: Homo sapiens, 72 h, read-out: The results of antibiotic drug inhibiting cancer cell lines (cell viability analysis), BCC
[11] = tested on: HeLa (Cervix Adenocarcinoma); experiment: Cell viability analysis, cervical cancer HeLa; settings: Homo sapiens, HeLa, 72 h
[12] = tested on: C-33A (Cervical carcinoma); experiment: Cell viability analysis, cervical cancer C-33A; settings: Homo sapiens, C-33-A, 72 h, read-out: The results of antibiotic drug inhibiting cancer cell lines (cell viability analysis), C-33A
[13] = tested on: TSGH-8301 (Urinary Bladder Carcinoma); experiment: Cell viability analysis, bladder cancer TSGH-8301; settings: Homo sapiens, 72 h
[14] = tested on: T24; experiment: Cell viability analysis, bladder cancer T24; settings: Homo sapiens, T-24, 72 h, read-out: The results of antibiotic drug inhibiting cancer cell lines (cell viability analysis), T24
[15] = tested on: MCF7 (Mammary Gland, Adenocarcinoma); experiment: Cell viability analysis, breast cancer MCF7; settings: Homo sapiens, MCF7, 72 h
[16] = tested on: MDA-MB-231 (Mammary Gland, Adenocarcinoma); experiment: Cell viability analysis, breast cancer MDA-MB-231; settings: Homo sapiens, MDA-MB-231, 72 h, read-out: The results of antibiotic drug inhibiting cancer cell lines (cell viability analysis), MDA-MB231
[17] = tested on: BxPC-3; experiment: Cell viability analysis, pancreatic cancer BxPC-3; settings: Homo sapiens, BXPC-3, 72 h, read-out: The results of antibiotic drug inhibiting cancer cell lines (cell viability analysis), BxPC-3
[18] = tested on: AsPC-1; experiment: Cell viability analysis, pancreatic cancer AsPC-1; settings: Homo sapiens, ASPC1, 72 h, read-out: The results of antibiotic drug inhibiting cancer cell lines (cell viability analysis), AsPC-1
[19] = tested on: NIH: OVCAR-3; experiment: Cell viability analysis, ovarian cancer NIH: OVCAR-3; settings: Homo sapiens, OVCAR-3, 72 h, read-out: The results of antibiotic drug inhibiting cancer cell lines (cell viability analysis), NIH-OVCAR-3
[20] = tested on: TOV-21G; experiment: Cell viability analysis, ovarian cancer TOV-21G; settings: Homo sapiens, TOV21G, 72 h, read-out: The results of antibiotic drug inhibiting cancer cell lines (cell viability analysis), TOV-21G
[21] = tested on: SAS (Tongue squamous cell carcinoma); experiment: Cell viability analysis, tongue cancer SAS; settings: Homo sapiens, 72 h, read-out: The results of antibiotic drug inhibiting cancer cell lines (cell viability analysis), SAS
[22] = tested on: U-2OS; experiment: Cell viability analysis, osteosarcoma U-2OS; settings: Homo sapiens, U2OS, 72 h, read-out: The results of antibiotic drug inhibiting cancer cell lines (cell viability analysis), U2OS
[23] = tested on: 786-O (Renal adenocarcinoma); experiment: Cell viability analysis, renal cancer 786-O; settings: Homo sapiens, 786-0, 72 h, read-out: The results of antibiotic drug inhibiting cancer cell lines (cell viability analysis), 786-O
[24] = tested on: HL-60 (Acute Promyelocytic Leukemia); experiment: Cell viability analysis, leukemia HL-60; settings: Homo sapiens, HL-60, 72 h, read-out: cell viability (survival rate), HL-60, drug 10 μM, 72 hours, WST-1, OD450 nm
[25] = read-out: The results of antibiotic drug inhibiting cancer cell lines (cell viability analysis), H1650, H1650, repeated experiment
[26] = read-out: cell viability (survival rate), H1650, drug 10 μM, 72 hours, WST-1, OD450 nm
[27] = read-out: The results of antibiotic drug inhibiting cancer cell lines (cell viability analysis), A549, A549, repeated experiment
[28] = read-out: cell viability (survival rate), A549, drug 10 μM, 72 hours, WST-1, OD450 nm
[29] = read-out: The results of antibiotic drug inhibiting cancer cell lines (cell viability analysis), AGS, repeated experiment
[30] = read-out: cell viability (survival rate), AGS, drug 10 μM, 72 hours, WST-1, OD450 nm
[31] = read-out: The results of antibiotic drug inhibiting cancer cell lines (cell viability analysis), MKN-45, MKN-45, repeated experiment
[32] = read-out: cell viability (survival rate), MKN-45, drug 10 μM, 72 hours, WST-1, OD450 nm
[33] = read-out: The results of antibiotic drug inhibiting cancer cell lines (cell viability analysis), HepG2, HepG2, repeated experiment
[34] = read-out: cell viability (survival rate), HepG2, drug 10 μM, 72 hours, WST-1, OD450 nm
[35] = read-out: The results of antibiotic drug inhibiting cancer cell lines (cell viability analysis), LoVo, repeated experiment
[36] = read-out: cell viability (survival rate), LoVo, drug 10 μM, 72 hours, WST-1, OD450 nm
[37] = read-out: The results of antibiotic drug inhibiting cancer cell lines (cell viability analysis), A375, A375, repeated experiment
[38] = read-out: cell viability (survival rate), A375, drug 10 μM, 72 hours, WST-1, OD450 nm
[39] = read-out: The results of antibiotic drug inhibiting cancer cell lines (cell viability analysis), HeLa, repeated experiment
[40] = read-out: cell viability (survival rate), HeLa, drug 10 μM, 72 hours, WST-1, OD450 nm
[41] = read-out: The results of antibiotic drug inhibiting cancer cell lines (cell viability analysis), TSGH-8301, TSGH-8301, repeated experiment
[42] = read-out: cell viability (survival rate), TSGH, drug 10 μM, 72 hours, WST-1, OD450 nm
[43] = read-out: The results of antibiotic drug inhibiting cancer cell lines (cell viability analysis), MCF-7, MCF-7, repeated experiment
[44] = read-out: cell viability (survival rate), MCF7, drug 10 μM, 72 hours, WST-1, OD450 nm

For `N=C(N)c1ccc(OCCCCCOc2ccc(C(=N)N)cc2)cc1` [Pentamidine], which “inhibition effect on different cancer cell lines” value [1] is on record?
The value was “significant inhibition effect”.

And the viability at 10 µM [2, 25]?
Its viability at 10 µM is 68.5%.

What about the viability at 10 µM [2, 26] of the same compound?
Its viability at 10 µM is 65.8%.

What about the viability at 10 µM [3, 27] of the same compound?
Its viability at 10 µM is 35.4%.

What about the viability at 10 µM [3, 28] of the same compound?
The viability at 10 µM was 51.8%.

And the viability at 10 µM [4, 29]?
The viability at 10 µM was 92.4%.

And the viability at 10 µM [4, 30]?
The viability at 10 µM was 50.6%.

And the viability at 10 µM [5, 31]?
The viability at 10 µM was 97.3%.

What about the viability at 10 µM [5, 32] of the same compound?
The viability at 10 µM was 86.3%.

What about the viability at 10 µM [6, 33] of the same compound?
The viability at 10 µM was 69.1%.

And the viability at 10 µM [6, 34]?
The viability at 10 µM was 76.4%.

And the viability at 10 µM [7]?
The viability at 10 µM was 72%.

What about the viability at 10 µM [8, 35] of the same compound?
Its viability at 10 µM is 63.4%.

And the viability at 10 µM [8, 36]?
Its viability at 10 µM is 74.4%.

What about the viability at 10 µM [9, 37] of the same compound?
Its viability at 10 µM is 49.8%.

What about the viability at 10 µM [9, 38] of the same compound?
The viability at 10 µM was 38.2%.

What about the viability at 10 µM [10] of the same compound?
The viability at 10 µM was 45.8%.

What about the viability at 10 µM [11, 39] of the same compound?
Its viability at 10 µM is 44.6%.

And the viability at 10 µM [11, 40]?
Its viability at 10 µM is 55.9%.

What about the viability at 10 µM [12] of the same compound?
The viability at 10 µM was 65.7%.

What about the viability at 10 µM [13, 41] of the same compound?
The viability at 10 µM was 82.7%.

What about the viability at 10 µM [13, 42] of the same compound?
The viability at 10 µM was 59.3%.

What about the viability at 10 µM [14] of the same compound?
The viability at 10 µM was 123%.

And the viability at 10 µM [15, 43]?
The viability at 10 µM was 60.5%.

What about the viability at 10 µM [15, 44] of the same compound?
Its viability at 10 µM is 68.5%.

What about the viability at 10 µM [16] of the same compound?
Its viability at 10 µM is 79%.

And the viability at 10 µM [17]?
The viability at 10 µM was 55%.

What about the viability at 10 µM [18] of the same compound?
The viability at 10 µM was 66.2%.

And the viability at 10 µM [19]?
Its viability at 10 µM is 90.9%.

And the viability at 10 µM [20]?
Its viability at 10 µM is 82.9%.

And the viability at 10 µM [21]?
The viability at 10 µM was 50.9%.

What about the viability at 10 µM [22] of the same compound?
Its viability at 10 µM is 43.9%.

What about the viability at 10 µM [23] of the same compound?
Its viability at 10 µM is 67.3%.

What about the viability at 10 µM [24] of the same compound?
The viability at 10 µM was 57.8%.

For `O=c1[nH]c(=O)n([C@H]2C[C@H](O)[C@@H](CO)O2)cc1C(F)(F)F` [Trifluridine (Viroptic), Trifluridine], which “inhibition effect on different cancer cell lines” value [1] is on record?
The value was “significant inhibition effect”.

And the viability at 10 µM [2, 25]?
Its viability at 10 µM is 78%.

And the viability at 10 µM [2, 26]?
The viability at 10 µM was 71%.

What about the viability at 10 µM [3, 27] of the same compound?
Its viability at 10 µM is 61.6%.

And the viability at 10 µM [3, 28]?
The viability at 10 µM was 36.5%.

What about the viability at 10 µM [4, 29] of the same compound?
Its viability at 10 µM is 83.2%.

What about the viability at 10 µM [4, 30] of the same compound?
Its viability at 10 µM is 64.4%.

What about the viability at 10 µM [5, 31] of the same compound?
The viability at 10 µM was 89.5%.

What about the viability at 10 µM [5, 32] of the same compound?
The viability at 10 µM was 43.6%.

And the viability at 10 µM [6, 33]?
The viability at 10 µM was 85.6%.

What about the viability at 10 µM [6, 34] of the same compound?
Its viability at 10 µM is 90.2%.

And the viability at 10 µM [7]?
The viability at 10 µM was 77.6%.

And the viability at 10 µM [8, 35]?
The viability at 10 µM was 62.5%.

What about the viability at 10 µM [8, 36] of the same compound?
Its viability at 10 µM is 72.1%.

What about the viability at 10 µM [9, 37] of the same compound?
The viability at 10 µM was 59.4%.

What about the viability at 10 µM [9, 38] of the same compound?
Its viability at 10 µM is 48.6%.

What about the viability at 10 µM [10] of the same compound?
Its viability at 10 µM is 83.3%.

And the viability at 10 µM [11, 39]?
Its viability at 10 µM is 86.9%.

What about the viability at 10 µM [11, 40] of the same compound?
Its viability at 10 µM is 51.8%.

What about the viability at 10 µM [12] of the same compound?
Its viability at 10 µM is 66.5%.

What about the viability at 10 µM [13, 41] of the same compound?
The viability at 10 µM was 86.4%.

What about the viability at 10 µM [13, 42] of the same compound?
Its viability at 10 µM is 51.3%.

What about the viability at 10 µM [14] of the same compound?
The viability at 10 µM was 55.4%.

And the viability at 10 µM [15, 43]?
The viability at 10 µM was 79.6%.

And the viability at 10 µM [15, 44]?
The viability at 10 µM was 36.3%.

And the viability at 10 µM [16]?
Its viability at 10 µM is 75.1%.

What about the viability at 10 µM [17] of the same compound?
The viability at 10 µM was 73.1%.

What about the viability at 10 µM [18] of the same compound?
The viability at 10 µM was 62.1%.

What about the viability at 10 µM [19] of the same compound?
Its viability at 10 µM is 105%.

And the viability at 10 µM [20]?
The viability at 10 µM was 81.4%.

What about the viability at 10 µM [21] of the same compound?
The viability at 10 µM was 33.5%.

And the viability at 10 µM [22]?
The viability at 10 µM was 61.2%.

What about the viability at 10 µM [23] of the same compound?
The viability at 10 µM was 37.9%.

And the viability at 10 µM [24]?
Its viability at 10 µM is 88.9%.
